# Experimental data as given in patent US5475014A, “Oxazolidone derivative” (Eisai Co., Ltd., priority 1991, dated 1995).
# Where a name gives a salt, the structure may show the parent alone.
# Columns and labels:
# MAO-B = target: T1, MAO-B (Rattus norvegicus, UniProt P19643); assay: MAO-B inhibition activity with rat forebrain (14C-PEA substrate); type: biochemical, rat (male Wistar); conditions: for inhibition at 1 µM / Inhibiting activity MAO-B (% at 10^-6 M): 10^-6 M; for inhibition at 1 µM: read-out: Inhibiting activity MAO-B (% at 10^-6 M); for IC50: PEA 20 μM, read-out: Inhibiting activity MAO-B, IC50
# T1 construct: suspension of 1 part by volume of the forebrains of male Wistar rats; from tissue; host or cells: forebrain of male Wistar rats, suspension in potassium phosphate buffer
# T1 sequence (P19643 1-520): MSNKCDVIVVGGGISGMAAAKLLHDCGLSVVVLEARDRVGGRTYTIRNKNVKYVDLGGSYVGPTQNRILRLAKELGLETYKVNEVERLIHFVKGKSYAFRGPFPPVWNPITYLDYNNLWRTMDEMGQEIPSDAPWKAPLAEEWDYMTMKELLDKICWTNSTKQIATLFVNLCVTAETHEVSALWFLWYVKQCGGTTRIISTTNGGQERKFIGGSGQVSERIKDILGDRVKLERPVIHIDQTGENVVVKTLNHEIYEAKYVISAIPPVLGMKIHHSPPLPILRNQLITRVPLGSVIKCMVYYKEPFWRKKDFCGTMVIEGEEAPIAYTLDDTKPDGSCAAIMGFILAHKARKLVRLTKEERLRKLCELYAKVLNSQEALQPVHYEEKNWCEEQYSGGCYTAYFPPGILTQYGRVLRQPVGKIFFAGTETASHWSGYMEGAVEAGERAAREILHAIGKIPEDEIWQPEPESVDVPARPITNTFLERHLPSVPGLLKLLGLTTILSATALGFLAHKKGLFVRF
# Experimental: (§1) Determination of MAO inhibition activity with the use of rat forebrain:
# (§2) The MAO inhibition activity was determined by a method of Prada et al. (J. Pharmacol. Exp. Ther., 248, 400-414 (1989)).
# (§3) The enzyme reaction was conducted in 300 μl of a solution having the following composition:
# (§4) ^14 C-labelled enzyme substrate
# (§5) The enzyme source used was a suspension of 1 part by volume of the forebrains of male Wistar rats in 5 parts by volume of a 0.1M potassium phosphate buffer (pH 7.4). The enzyme source was mixed with the test compound and the mixture was prewarmed at 37° C. for 10 min. Then the enzyme substrate was added thereto to initiate the enzyme reaction. After 10 min, 200 μl of 2N hydrochloric acid was added to terminate the reaction.
# (§6) As the substrates for MAO-A and MAO-B, 5-HT (serotonin) and PEA (β-phenethylamine) each labelled with ^14 C were used, respectively. The specific radioactivities of 5-HT and PEA were regulated to 11.1 MBq/mmol and 29.6 MBq/mmol, respectively, and the concentrations of them were 200 μM and 20 μM, respectively, in the reaction.
# (§7) The test compound was dissolved in distilled water so that an intended concentration could be obtained in the enzyme reaction. When the test compound was insoluble in water, it was dissolved in dimethyl sulfoxide to obtain a 10% solution.
# (§8) Diethyl ether and n-heptane were used as […], respectively. After the termination of the enzyme reaction, 3 ml of the solvent was added to the reaction mixture and shaken for 10 min. After centrifugation at 3,000 rpm for about 10 min, the lower aqueous layer was frozen in dry ice/acetone. The upper organic layer was recovered by decantation and the radioactivity thereof was determined with a liquid scintillation counter.
# (§9) The inhibiting activities of the test compounds against MAO A and MAO B are given at the concentrations of 10^-7 M and 10^-6 M or by IC50 values.
# MAO-A = target: T2, MAO-A (Rattus norvegicus, UniProt P21396); assay: MAO-A inhibition activity with rat forebrain (14C-5-HT substrate); type: biochemical, rat (male Wistar); conditions: for inhibition at 0.1 µM / Inhibiting activity MAO-A (% at 10^-7 M): 10^-7 M; for inhibition at 0.1 µM: read-out: Inhibiting activity MAO-A (% at 10^-7 M); for IC50: 5-HT 200 μM, read-out: Inhibiting activity MAO-A, IC50
# T2 construct: suspension of 1 part by volume of the forebrains of male Wistar rats; from tissue; host or cells: forebrain of male Wistar rats, suspension in potassium phosphate buffer
# T2 sequence (P21396 1-526): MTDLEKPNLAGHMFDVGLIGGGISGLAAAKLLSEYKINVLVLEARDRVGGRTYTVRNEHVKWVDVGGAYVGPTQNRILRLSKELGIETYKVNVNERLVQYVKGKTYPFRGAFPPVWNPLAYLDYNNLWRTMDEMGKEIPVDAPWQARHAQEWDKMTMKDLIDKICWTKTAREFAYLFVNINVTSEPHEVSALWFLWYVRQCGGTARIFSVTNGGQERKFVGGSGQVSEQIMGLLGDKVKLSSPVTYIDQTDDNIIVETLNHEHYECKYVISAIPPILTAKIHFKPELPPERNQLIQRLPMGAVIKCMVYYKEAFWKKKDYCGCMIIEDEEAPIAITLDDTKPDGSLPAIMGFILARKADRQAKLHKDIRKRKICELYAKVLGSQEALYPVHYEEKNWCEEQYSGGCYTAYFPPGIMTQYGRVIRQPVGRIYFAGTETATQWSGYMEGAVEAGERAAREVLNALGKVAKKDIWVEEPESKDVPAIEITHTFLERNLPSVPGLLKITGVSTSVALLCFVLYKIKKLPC
# Experimental: as §1, §2, §3, §4, §5, §6, §7, §8, §9
Compound,inhibition at 1 µM (MAO-B) [%],inhibition at 0.1 µM (MAO-A) [%],other results
"COCC1CN(c2ccc3nc(COC(=O)c4ccccc4)sc3c2)C(=O)O1 (stereo not drawn) [Example 1, 3-(2-Benzoyloxymethylbenzothiazol-6-yl)-5-methoxymethyl-2-oxazolidinone]",15,93,
"COCC1CN(c2ccc3nc(CO)sc3c2)C(=O)O1 (stereo not drawn) [Example 2, 3-(2-Hydroxymethylbenzothiazol-6-yl)-5-methoxymethyl-2-oxazolidinone]",11,64,
COCC1CN(c2ccc3nc(COCC#N)sc3c2)C(=O)O1 (stereo not drawn) [Example 3],11,,IC50 (MAO-A): 5 nM
"COCC1CN(c2ccc3nc(CNCC#N)sc3c2)C(=O)O1 (stereo not drawn) [Example 4, 3-[(2-Cyanomethylaminomethylbenzothiazol)-6-yl]-5-methoxymethyl-2-oxazolidinone]",13,,IC50 (MAO-A): 39 nM
"COCC1CN(c2ccc3nc(C4CCC(=O)O4)sc3c2)C(=O)O1 (stereo not drawn) [Example 5, 3-[2-(5-Oxotetrahydrofuran-2-yl)benzothiazol-6-ul]-5methoxymethyl-2-oxazolidinone]",11,,Inhibiting activity MAO-A (% at 10^-7 M) (MAO-A): 78%
COC[C@H]1CN(c2ccc3nc(C4CCC(O)O4)sc3c2)C(=O)O1 (stereo partly drawn) [Example 7],10,24,
"COCC1CN(c2ccc3nc(C(O)CC=NO)sc3c2)C(=O)O1 (stereo not drawn) [Example 8, 3-[2-(1-Hydroxy-3-hydroxyiminopropyl)benzothiazol-6-yl]-5-methoxymethyl-2-oxazolidinone]",13,80,
"COC[C@H]1CN(c2ccc3nc([C@@H](O)CCC#N)sc3c2)C(=O)O1 [Example 9, 3-[2-(1(S)-Hydroxy-3-cyanopropyl)benzothiazol-6-yl]-5(R)-methoxymethyl-2-oxazolidinone]",13,87,
"COC[C@H]1CN(c2ccc3nc(N4CCC(C#N)CC4)sc3c2)C(=O)O1 [Example 13, (R)-3-[2-(4-Cyanopiperidino)benzothiazol-6-yl]-5-methoxymethy]-2-oxazolidinone hydrochloride]",,,IC50 (MAO-B): 598 µM; IC50 (MAO-A): 290 nM
COCC1CN(c2ccc3nc(CCCC#N)sc3c2)C(=O)O1 (stereo not drawn) [Example 14],,,IC50 (MAO-B): 579 µM; IC50 (MAO-A): 14 nM
COCC1CN(c2ccc3nc(CCC#N)sc3c2)C(=O)O1 (stereo not drawn) [Example 15],,,IC50 (MAO-B): 487 µM; IC50 (MAO-A): 256 nM
COC[C@H]1CN(c2ccc3nc(CCCC#N)sc3c2)C(=O)O1 [Example 16],17,71,
COC[C@@H]1CN(c2ccc3nc(CCCC#N)sc3c2)C(=O)O1 [Example 17],9,24,
N#CCCCc1nc2ccc(N3C[C@H](CO)OC3=O)cc2s1 [Example 18],,,IC50 (MAO-B): 930 µM; IC50 (MAO-A): 21 nM
N#CCCCc1nc2ccc(N3C[C@@H](CO)OC3=O)cc2s1 [Example 19],16,61,
COCC1CN(c2ccc3nc(CCCCC#N)sc3c2)C(=O)O1 (stereo not drawn) [Example 20],14,15,
COCC1CN(c2ccc3nc(/C=C/CCC#N)sc3c2)C(=O)O1 (stereo not drawn) [Example 21],8,10,
COC[C@@H]1CN(c2ccc3nc(CCCCC#N)sc3c2)C(=O)O1 [Example 22],7,75,
COC[C@H]1CN(c2ccc3nc(CCCCC#N)sc3c2)C(=O)O1 [Example 23],,,IC50 (MAO-B): > 100 µM; IC50 (MAO-A): 28 nM
N#CCCCCc1nc2ccc(N3C[C@H](CO)OC3=O)cc2s1 [Example 24],,,IC50 (MAO-B): > 100 µM; IC50 (MAO-A): 137 nM
COC[C@H]1CN(c2ccc3nc(C(C)(C)CCC#N)sc3c2)C(=O)O1 [Example 25],7,73,
CC(C)(CCC#N)c1nc2ccc(N3C[C@H](CO)OC3=O)cc2s1 [Example 26],7,73,
COCC1CN(c2ccc3nc(C(O)CCC#N)sc3c2)C(=O)O1 (stereo not drawn) [Example 27],,,Inhibiting activity MAO-B (% at 10^-6 M) (MAO-B): 10%; IC50 (MAO-A): 6.7 nM
COCC1CN(c2ccc3nc(N(C)CCC#N)sc3c2)C(=O)O1 (stereo not drawn) [Example 28],,,IC50 (MAO-B): 990 µM; IC50 (MAO-A): 31 nM
CN(CCC#N)c1nc2ccc(N3CC(CO)OC3=O)cc2s1 (stereo not drawn) [Example 29],,,IC50 (MAO-B): 2240 µM; IC50 (MAO-A): 19 nM
COCC1CN(c2ccc3nc(C4CCC(=O)O4)sc3c2)C(=O)O1 (stereo not drawn) [Example 34],,,Inhibiting activity MAO-B (% at 10^-6 M) (MAO-B): 8%; Inhibiting activity MAO-A (% at 10^-7 M) (MAO-A): 11%

# Now from value to compound, other results behind:
inhibition at 1 µM (MAO-B) [%],inhibition at 0.1 µM (MAO-A) [%],Compound,other results
15,42,COCC1CN(c2ccc3nc(C(O)CCCO)sc3c2)C(=O)O1 (stereo not drawn) [Example 30],
12,54,COCC1CN(c2ccc3nc(C(=O)CCC#N)sc3c2)C(=O)O1 (stereo not drawn) [Example 31],
7,23,COCC1CN(c2ccc3nc(NCCC#N)sc3c2)C(=O)O1 (stereo not drawn) [Example 32],
10,5,N#CCCNc1nc2ccc(N3CC(CO)OC3=O)cc2s1 (stereo not drawn) [Example 33],
,27,COCC1CN(c2ccc3nc(C(O)CCC#N)sc3c2)C(=O)O1 (stereo not drawn) [Example 35],Inhibiting activity MAO-B (% at 10^-6 M) (MAO-B): 0%
1,,COCC1CN(c2ccc3nc(C(C)(O)CCC#N)sc3c2)C(=O)O1 (stereo not drawn) [Example 36],IC50 (MAO-A): 6.8 nM
11,32,COCC1CN(c2ccc3nc(C(CCC#N)=NO)sc3c2)C(=O)O1 (stereo not drawn) [Example 38],
2,15,COCC1CN(c2ccc3nc(C(CCC#N)=NOC)sc3c2)C(=O)O1 (stereo not drawn) [Example 39],
6,8,COCC1CN(c2ccc3nc(C(CCC#N)N4CCCC4)sc3c2)C(=O)O1 (stereo not drawn) [Example 40],
3,9,COCC1CN(c2ccc3nc(C(N)CCC#N)sc3c2)C(=O)O1 (stereo not drawn) [Example 41],
5,63,N#CC1CCN(c2nc3ccc(N4CC(CO)OC4=O)cc3s2)CC1 (stereo not drawn) [Example 42],
14,,COCC1CN(c2ccc3nc(N(CCC#N)CCC#N)sc3c2)C(=O)O1 (stereo not drawn) [Example 43],"inhibition at 1 µM (MAO-A; 10^-6 M, read-out: Inhibiting activity MAO-A (at 10^-6 M)): 87%"
4,6,COCC1CN(c2ccc3sc(C)nc3c2)C(=O)O1 (stereo not drawn) [Example 44],
10,40,COCC1CN(c2ccc3sc(NC(=O)CC#N)nc3c2)C(=O)O1 (stereo not drawn) [Example 45],
3,7,COCC1CN(c2ccc3sc(C(O)CCC#N)nc3c2)C(=O)O1 (stereo not drawn) [Example 46],
9,52,COCC1CN(c2ccc3sc(CCCC#N)nc3c2)C(=O)O1 (stereo not drawn) [Example 47],
